By IC50 is commonly meant the concentration needed to halve the response being measured. Low values mean greater potency, high ones weaker potency.

Our source for the IC50 values is ChEMBL document CHEMBL1143383, “Novel heteroaromatic organofluorine inhibitors of fructose-1,6-bisphosphatase” (J Med Chem, 2009).

For this test, the target named is T1, Fructose-1,6-bisphosphatase 1 (Mus musculus, UniProt Q9QXD6).
T1 sequence (Q9QXD6 whole entry): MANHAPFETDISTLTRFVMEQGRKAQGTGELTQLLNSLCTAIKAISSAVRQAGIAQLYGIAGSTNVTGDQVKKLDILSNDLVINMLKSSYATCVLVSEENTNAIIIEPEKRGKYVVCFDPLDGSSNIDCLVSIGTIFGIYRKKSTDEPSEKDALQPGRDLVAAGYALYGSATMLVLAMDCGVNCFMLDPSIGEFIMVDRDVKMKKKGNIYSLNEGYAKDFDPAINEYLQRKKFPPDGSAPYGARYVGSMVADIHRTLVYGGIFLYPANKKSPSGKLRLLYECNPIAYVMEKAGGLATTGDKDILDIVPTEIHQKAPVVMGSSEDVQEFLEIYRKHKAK
Kind of test: Inhibition of fructose-1,6-bisphosphatase in mouse liver homogenates by colorimetric phosphate assay. Format: tissue-based.

Consider `COc1ccc(S(=O)(=O)n2cccc2)cc1`, for which the 50% inhibitory concentration (IC50) stood at 246 µM.

`O=S(=O)(c1ccc2ccccc2c1)n1ccc2ccccc21` gave an IC50 of more than 300 µM.

Take `O=[N+]([O-])c1ccc(S(=O)(=O)n2c3ccccc3c3ccccc32)cc1`: inhibition was half-maximal at 177 µM (IC50).

Compound `Fc1ccc(-c2cc(-c3ccc(F)cc3)n(-c3cccc(C(F)(F)F)c3)n2)cc1` came in with an IC50 of 75.5 µM.

`CCOC(=O)C(O)(c1c[nH]c2ccc(I)cc12)C(F)(F)F` (stereo not drawn) gave a half-maximal inhibitory concentration (IC50) of 13.3 µM.

`CCOC(=O)CC(O)(c1ccc[nH]1)C(F)(F)F` (stereo not drawn) registered an IC50 of 25.7 µM.

As to `O=C(c1ccc([N+](=O)[O-])cc1)n1ccc2ccccc21`, the IC50 was more than 300 µM.

On to `O=C(c1ccc(F)cc1)n1ccc2ccccc21`, for which half-maximal inhibition (IC50) was put at 129 µM.

The compound `CCOC(=O)CC(O)(c1cccn1C)C(F)(F)F` (stereo not drawn) had an IC50 of 41.8 µM.

Turning to `COC(=O)c1ccc2[nH]c3ccccc3c2c1`, the IC50 was more than 300 µM.

Regarding `O=S(=O)(c1ccccc1)n1ccc2ccccc21`, the half-inhibitory concentration (IC50) turned out to be 119 µM.

For `O=S(=O)(c1ccc2ccccc2c1)n1c2ccccc2c2ccccc21`, the half-inhibitory concentration (IC50) is more than 300 µM.

Compound `Fc1ccc(-c2cc(-c3ccc(F)cc3)n(-c3ccccc3)n2)cc1` showed a half-maximal inhibitory concentration (IC50) of 151 µM.

On to `Cc1ccccc1S(=O)(=O)n1cccc1`, for which the concentration for half-maximal inhibition (IC50) was more than 250 µM.

`O=[N+]([O-])c1ccc(S(=O)(=O)n2cccc2)cc1` returned an IC50 of 109 µM.

In turn, `O=C(c1ccc(C(F)(F)F)cc1)n1ccc2ccccc21` gave an IC50 of 3.09 µM.

Consider `CCOC(=O)CC(O)(c1[nH]c(C)cc1C)C(F)(F)F` (stereo not drawn), for which the IC50 came out at 4.81 µM.

For the compound `O=[N+]([O-])c1ccc(-n2nc(-c3ccccc3)cc2-c2ccccc2)cc1`, the 50% inhibitory concentration (IC50) is more than 300 µM.

Regarding `COc1ccc2[nH]c3c(C)ccc(C)c3c2c1`, the half-maximal inhibitory concentration (IC50) was more than 300 µM.

The compound `CCOC(=O)C(O)(c1c[nH]c2ccc(C)cc12)C(F)(F)F` (stereo not drawn) showed an IC50 of 36 µM.

As for `COc1ccc(S(=O)(=O)n2ccc3ccccc32)cc1`, the half-maximal inhibitory concentration (IC50) is more than 300 µM.

`Cc1ccc(S(=O)(=O)n2cccc2)cc1` gave an IC50 of more than 300 µM.

In the case of `O=[N+]([O-])c1ccc(S(=O)(=O)n2ccc3ccccc32)cc1`, inhibition was half-maximal at 185 µM (IC50).

As to `COc1ccc(S(=O)(=O)n2c3ccccc3c3ccccc32)cc1`, the half-inhibitory concentration (IC50) was more than 250 µM.

Compound `O=S(=O)(c1ccccc1)n1cccc1` registered an IC50 of 76.2 µM.

In the case of `FC(F)(F)c1cccc(-n2nc(-c3ccccc3)cc2-c2ccccc2)c1`, inhibition was half-maximal at 6.04 µM (IC50).

The compound `CCOC(=O)C(O)(c1cn(C)c2ccccc12)C(F)(F)F` (stereo not drawn) yielded an IC50 of 11.9 µM.

`CCOC(=O)C(O)(c1ccc[nH]1)C(F)(F)F` (stereo not drawn) came in with an IC50 of 25.7 µM.
